Results reported in patent US9642922B2, “Caspase-triggered nano-aggregation probes and methods of use” (The Board of Trustees of the Leland Stanford Junior …, priority 2013, dated 2017).
Numbered stars: 1 amine (or outer) side, 2 acyl side, 3 side chain; on linkers, the order of the positions; unused ones are H or OH. Square brackets hold non-standard residues; d marks the D form. Peptide text beside a SMILES is read from it. * marks the point of attachment. DOTA = O=C(O)CN1CCN(CC(=O)O)CCN(CC(=O)*)CCN(CC(=O)O)CC1; X1 = O=C(C1CSC(c2nc3ccc(N[*:1])cc3s2)=N1)[*:2]; X2 = N#Cc1ccc2cc(OCCCN*)ccc2n1; SEt = CCS*

Columns and labels:
caspase-3 [1] = biological target: T1, caspase-3 (Homo sapiens, UniProt P42574); assay: HPLC assay of caspase-3-triggered macrocyclization of C-SNAF; format: biochemical; set-up: purchased Sigma; host or cells: E. coli; conditions: probe 25 μM, caspase-3, 6 h
T1 sequence (P42574 29-175 limits assumed): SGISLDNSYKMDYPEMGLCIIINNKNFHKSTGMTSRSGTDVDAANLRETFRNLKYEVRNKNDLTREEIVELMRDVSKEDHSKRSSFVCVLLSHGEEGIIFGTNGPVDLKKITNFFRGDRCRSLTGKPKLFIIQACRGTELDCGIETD
T1 sequence (P42574 176-277 limits assumed): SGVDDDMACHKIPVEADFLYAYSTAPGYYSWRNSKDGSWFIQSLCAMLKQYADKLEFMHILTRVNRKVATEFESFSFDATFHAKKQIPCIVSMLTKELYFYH
Procedure: The progression of caspase-3-triggered macrocyclization of C-SNAF to form C-SNAF-cycl in solution was monitored using high-performance liquid chromatography (HPLC) following incubation of the probe (25 μM) with recombinant human caspase-3 (4.9×10^−[…]).
Caspase (human, recombinant from E. coli) assays were performed for caspase-3 (4.9×10^−3 U; 7.35×10^−4 mg, Sigma), −7 (18.3 U; 7.35×10^−4 mg, Calbiochem), and −9 (0.3 U; 7.35×10^−4 mg, Calbiochem). All caspase assays were conducted in caspase buffer with 50 mM HEPES, 100 mM NaCl, 1 mM EDTA, 10 mM TCEP, 10% glycerol, and 0.1% CHAPS at pH 7.4. Cathepsin B (human liver; 0.27 U; 7.35×10^−4 mg, Calbiochem) and Legumain (human, recombinant from mouse myeloma cell line; >250 pmol/min/μg; 7.35×10^−4 mg, R&D Systems) were conducted in reaction buffer with 50 mM sodium acetate, 50 mM NaCl, 0.5 mM EDTA and 10 mM TCEP at pH 5.5. C-SNAF was diluted in the respective enzyme reaction buffer (25 μM, 1 mL) and remained at room temperature for 10 min, to which was then added the respective enzymes. Reactions were performed at 37° C., and monitored by HPLC hourly. The percentage conversion of the reaction was calculated based on the percentage of peak area of C-SNAF-cycl in the HPLC trace at 675 nm UV detection, which indicated the efficacy of enzyme cleavage of C-SNAF.

caspase-3/7 = assay: HPLC analysis of C-SNAF reaction in apoptotic cell lysates; format: biochemical, human; conditions: 5 μM, lysate of STS- and DOX-induced apoptotic HeLa or MDA-MB-231 cells
Procedure: To confirm the formation of the caspase-3/7-triggered intramolecular cyclization product C-SNAF-cycl in apoptotic cells, C-SNAF (5 μM) was incubated with both cell lysates and whole cells, and the products were analyzed by HPLC. […] However, more than 90% of C-SNAF was converted to C-SNAF-cycl in the lysate of STS- and DOX-induced apoptotic HeLa (FIG. 12A) or MDA-MB-231 cells, indicating the efficient intramolecular condensation initiated by caspase-3/7 in a complex cellular environment.
The culture medium was carefully removed and the cells were washed with cold 1×PBS. The cells were trypsinized to form cell pellets, and RIPA (RadioImmuno Precipitation Assay, sigma) buffer was added to cells using 100 μL of buffer per 4×10^6 cells. Then the cells were kept on ice for 0.5 h. The cell lysate was gathered, centrifuged at 14,000×g for 15 min at 4° C. The supernatant of the cell lysate was collected, and the caspase-3/7 activity in the lysate was determined by CASPASE-GLO® 3/7 assay. The cell lysate was diluted with caspase reaction buffer (2×, 1:1 diluted), and incubated with C-SNAF (5 μM) at 37° C. overnight and then injected into an HPLC system (Dionex) for analysis.

apoptotic HeLa cells = assay: Epifluorescence microscopy of apoptotic HeLa cells labeled with probes; format: cell-based, human
Procedure: After removal of the medium, the cells were incubated with C-SNAF, L-ctrl, or D-ctrl at 2 μM for 24 h. Some cells were first incubated with caspase inhibitor (Z-VAD-fmk, 50 μM) for 30 min, followed by incubating with 2 μM C-SNAF for 24 h. The cells were carefully washed with PBS (1×) three times, and stained with Hoechst 33342 (2 μM) at 37° C. for 30 min. After rinses with PBS (1×) several times, the medium was replaced and the fluorescence images were acquired with DAPI and Cy5.5 filters. The images were processed using the standard CRi Nuance software, analyzed using Image J software package (NIH), and presented at the same intensity scale for comparison.
HeLa cells in #1.5 borosilicate 8-well chambered coverslips (Nunc) were either incubated with C-SNAF (2 μM) alone or co-incubated with DOX (1, 2, and 5 μM) and 2 μM C-SNAF, 2 μM C-SNAF together with caspase inhibitor (Z-VAD-fmk, 50 μM), or control probes D-ctrl and L-ctrl at 2 μM for 24 h. Then the medium was removed, the cells were carefully washed with PBS (1×) three times, and stained with nuclear binding probe Hoechst 33342 (2 μM) at 37° C. for 30 min. After several rinses with PBS (1×), the medium was replaced and the fluorescence images were acquired with DAPI and […] filters.

viable HeLa cells = assay: Cell viability study (trypan blue); format: cell-based, human; conditions: 250 μM for 24 h
Procedure: About 2×10^5 HeLa cells in 1 mL DMEM medium were seeded onto 12-well plates. […] After 24 h incubation, the medium was removed, and the cells were trypsinized. The cell number was counted using trypan blue assay. The viability of cell with blank medium was set as 100%, and cells incubating with 1 or Dotarem were normalized to that in blank medium.

caspase-3 [2] = biological target: T1, caspase-3; assay: HPLC assay of caspase-3-triggered cyclization of MRI probe 15; format: biochemical; set-up: purchased Sigma; host or cells: E. coli; conditions: 200 μM probe, caspase-3 50 nM, 5 h
Procedure: The progression of caspase-3-triggered intramolecular cyclization of probe 15 in solution was investigated by incubation (200 μM) with recombinant human caspase-3 (50 nM) using high-performance liquid chromatography (HPLC). […] More than 90% of probe 15 and its disulfide bond reduced intermediates could be converted after 5 h (FIG. 27B).

Row | probe and disulfide-reduced intermediates converted to cyclized products (caspase-3 [2]) | Structure (SMILES) | conversion to C-SNAF-cycl after 6 h (caspase-3 [1]) | C-SNAF converted to C-SNAF-cycl in lysate (caspase-3/7) | cell labeling efficiency (apoptotic HeLa cells; DOX 1 μM) [%] | cell labeling efficiency (apoptotic HeLa cells; DOX 5 μM) [%] | enhancement in cell labeling efficiency (apoptotic HeLa cells; DOX 1 to 5 μM) | cell labeling efficiency (apoptotic HeLa cells; STS 0.5 μM) [%] | cell labeling efficiency (apoptotic HeLa cells; STS 2 μM) [%] | enhancement in cell labeling efficiency (apoptotic HeLa cells; STS 0.5 to 2 μM) | cytotoxicity, effect on cell viability (viable HeLa cells)
1 | – | CCSSC[C@@H](NC(=O)[C@H](CC(=O)O)NC(=O)[C@@H](NC(=O)[C@H](CCC(=O)O)NC(=O)[C@H](CC(=O)O)NC(C)=O)C(C)C)C(=O)N[C@@H](CCCCNC(=O)CCCCCN1C(=CC=CC=CC2=[N+](CC)c3ccc4c(S(=O)(=O)[O-])cc(S(=O)(=O)O)cc4c3C2(C)C)C(C)(C)c2c1ccc1c(S(=O)(=O)O)cc(S(=O)(=O)O)cc21)C(=O)Nc1ccc2nc(C3=N[C@@H](C(=O)NCCCOc4ccc5nc(C#N)ccc5c4)CS3)sc2c1 [C-SNAF] | almost completely converted to C-SNAF-cycl | more than 90% | 9 | 92 | approximately 10 fold | 23 | 90 | approximately 4 fold | –
2 | More than 90% | CCSSCC(NC(=O)C(CC(=O)O)NC(=O)C(NC(=O)C(CCC(=O)O)NC(=O)C(CC(=O)O)NC(C)=O)C(C)C)C(=O)NC(CCCCNC(=O)CN1CCN(CC(=O)[O-])CCN(CC(=O)[O-])CCN(CC(=O)[O-])CC1)C(=O)Nc1ccc2nc(C3=NC(C(=O)NCCCOc4ccc5nc(C#N)ccc5c4)CS3)sc2c1.[Gd+3] (stereo not shown) [probe 15] (Ac-DEVDC(SEt)K(DOTA)[X1]-X2; configuration not given here) | – | – | – | – | – | – | – | – | no adverse effects on cell viability
